Measurements as given in BindingDB's records for patent US20250313563 (The Broad Institute, 2025).
“And” between values parts separate entries of the source, which are not always exact repeats. Identical values can stand only once.

How the values were obtained:
[1] = molecular target: Glycogen synthase kinase-3 alpha (Homo sapiens, UniProt P49840); assay: TR-FRET Assay
Outline: (§1)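 Enzyme and test compound were first incubated together for 30 minutes in assay buffer. The kinase reaction followed and was stopped with EDTA. The pSer641 signal was read by time-resolved FRET.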

[2] = molecular target: Glycogen synthase kinase-3 beta (Homo sapiens, UniProt P49841); assay: TR-FRET Assay
Chain of Glycogen synthase kinase-3 beta (P49841 whole entry): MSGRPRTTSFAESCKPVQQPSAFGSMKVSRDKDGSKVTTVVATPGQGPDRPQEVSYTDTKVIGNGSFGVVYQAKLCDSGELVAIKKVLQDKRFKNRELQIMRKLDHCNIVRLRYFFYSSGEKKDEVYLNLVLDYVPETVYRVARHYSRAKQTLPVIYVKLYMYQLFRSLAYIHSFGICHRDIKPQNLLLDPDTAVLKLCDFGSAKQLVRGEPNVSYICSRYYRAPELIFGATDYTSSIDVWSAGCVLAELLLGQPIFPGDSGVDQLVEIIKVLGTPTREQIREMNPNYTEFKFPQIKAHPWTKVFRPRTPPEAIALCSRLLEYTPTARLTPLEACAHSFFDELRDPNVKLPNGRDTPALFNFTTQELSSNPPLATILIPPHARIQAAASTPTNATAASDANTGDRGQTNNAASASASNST
Outline: as §1

Chain of Glycogen synthase kinase-3 alpha (P49840 whole entry): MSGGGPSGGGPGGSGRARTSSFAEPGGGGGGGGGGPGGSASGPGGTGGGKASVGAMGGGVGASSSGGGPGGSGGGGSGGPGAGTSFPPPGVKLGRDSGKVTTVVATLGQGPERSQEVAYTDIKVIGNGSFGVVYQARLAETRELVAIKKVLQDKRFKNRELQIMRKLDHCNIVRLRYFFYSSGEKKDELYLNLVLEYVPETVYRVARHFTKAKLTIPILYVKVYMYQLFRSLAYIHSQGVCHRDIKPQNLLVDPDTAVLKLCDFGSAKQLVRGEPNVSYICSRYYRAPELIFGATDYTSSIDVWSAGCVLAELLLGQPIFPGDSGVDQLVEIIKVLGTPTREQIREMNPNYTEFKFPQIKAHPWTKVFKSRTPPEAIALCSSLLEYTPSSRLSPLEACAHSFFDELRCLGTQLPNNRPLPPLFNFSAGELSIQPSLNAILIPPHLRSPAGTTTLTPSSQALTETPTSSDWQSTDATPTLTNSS

IC50 [1] | IC50 [2] | SMILES
> 5 µM | > 5 µM | CC[C@]1(c2cccc(C(F)(F)F)c2)C2=CN=NC2NC2=C1C(=O)NC(C)(C)C2 (some centres undefined) [US20250313563, Compound 913004]
0.1 to 1 µM | 0.1 to 1 µM | CC[C@]1(c2ccccc2)C2=CN=NC2NC2=C1C(=O)C[C@@]1(CCCOC1)C2 (some centres undefined) [US20250313563, Compound 816879]
< 0.1 µM | < 0.1 µM and 0.1 to 1 µM | CC1(C)CC(=O)C2=C(C1)NC1=C(CN=N1)C21CCN(S(=O)(=O)c2cccc(C(F)F)c2)CC1 [US20250313563, Compound 947264]
1 to 5 µM | 1 to 5 µM | CCC1(COCc2ccccc2)C2=C(N=NC2)NC2=C1C(=O)CC(C)(C)C2 (centres undefined) [US20250313563, Compound 874313]
0.1 to 1 µM | 0.1 to 1 µM | O=C1C[C@@H](C(F)(F)F)CC2=C1C1(CCOCC1)C1=C(N=NC1)N2 [US20250313563, Compound 901478]
< 0.1 µM | < 0.1 µM | Cn1nccc1S(=O)(=O)N1CC2(C1)C1=C(N=NC1)NC1=C2C(=O)CC(C)(C)C1 [US20250313563, Compound 932648]
< 0.1 µM | 0.1 to 1 µM | CC1(C)CC(=O)C2=C(C1)NC1N=NC=C1[C@]21C[C@H](c2ccncc2)C1 (some centres undefined) [US20250313563, Compound 889664]
1 to 5 µM | 0.1 to 1 µM | COc1cncc(F)c1-c1cccc([C@]2(C)C3=C(CC(C)(C)CC3=O)NC3=C2C(CC(C)(C)C)N=N3)c1 (some centres undefined) [US20250313563, Compound 108954]
< 0.1 µM | < 0.1 µM | CC1(C)CC(=O)C2=C(C1)NC1=C(CN=N1)C21CCN(S(=O)(=O)c2ccc3c(c2)OCCO3)CC1 [US20250313563, Compound 947900]
< 0.1 µM | 0.1 to 1 µM | CCC1(c2cccc(-c3cnn(C)c3)c2)C2=CN=NC2NC2=C1C(=O)CC(C)(C)C2 (centres undefined) [US20250313563, Compound 816871]
< 0.1 µM | 0.1 to 1 µM | CCC1(c2cccc(Br)c2)C2=CN=NC2NC2=C1C(=O)C(F)C(C)(C)C2 (centres undefined) [US20250313563, Compound 826764]
0.1 to 1 µM | 1 to 5 µM | CCC1(c2cccc(CN(C)C(C)=O)c2)C2=CN=NC2NC2=C1C(=O)CC(C)(C)C2 (centres undefined) [US20250313563, Compound 865194]
< 0.1 µM | < 0.1 µM | CC[C@]1(c2cccc(OC)c2)C2=C(CC(C)(C)CC2=O)NC2N=NC(C(=O)OC)=C21 (some centres undefined) [US20250313563, Compound 901479]
0.1 to 1 µM | 0.1 to 1 µM | CCC1(c2cccc(-c3ccnc(OC(C)C)c3)c2)C2=CN=NC2NC2=C1C(=O)CC(C)(C)C2 (centres undefined) [US20250313563, Compound 932626]
> 5 µM | > 5 µM | CC[C@]1(c2cccc(-c3ccnc4ccc(C)cc34)c2)C2=CN=NC2NC2=C1C(=O)NC(C)(C)C2 (some centres undefined) [US20250313563, Compound 948658]
< 0.1 µM | < 0.1 µM | CC1(C)CC(=O)C2=C(C1)NC1=C(CN=N1)C21COC2(CN(C(=O)Cc3ccccc3)C2)C1 (centres undefined) [US20250313563, Compound 947306]
> 5 µM | > 5 µM | CC[C@@]1(c2cccc(C(F)(F)F)c2)C2=CN=NC2NC2=C1C(=O)N[C@@H](C)C2 (some centres undefined) [US20250313563, Compound 912099]
0.1 to 1 µM | > 5 µM | CC[C@@]1(c2cccc(-c3cc(C)nn3C)c2)C2=CN=NC2NC2=C1C(=O)CC(C)(C)[C@@H]2F (some centres undefined) [US20250313563, Compound 947657]
< 0.1 µM | 0.1 to 1 µM | CC[C@@]1(c2cccc(C3=C4CC=CC(C)=C4N=CC3)c2)C2=CN=NC2NC2=C1C(=O)NC(C)(C)C2 (some centres undefined) [US20250313563, Compound 952909]
< 0.1 µM | < 0.1 µM and 0.1 to 1 µM | CC[C@@]1(c2cccc(OC)c2)C2=C(CC(C)(C)CC2=O)NC2N=NC(C(F)(F)F)=C21 (some centres undefined) [US20250313563, Compound 884117]
< 0.1 µM | < 0.1 µM | CC(=O)N1C[C@]2(C[C@@]3(CO2)C2=C(N=NC2)NC2=C3C(=O)CC(C)(C)C2)[C@H]1C [US20250313563, Compound 948437]
< 0.1 µM and 0.1 to 1 µM | < 0.1 µM and 1 to 5 µM | CC[C@]1(c2cccc(C(F)(F)F)c2)C2=CN=NC2NC2=C1C(=O)N(C)C[C@H]2C (some centres undefined) [US20250313563, Compound 883980]
< 0.1 µM | 0.1 to 1 µM | CC[C@@]1(c2cccc(C(F)(F)F)c2)C2=C(N=NC2)NC2=C1C(=O)N(C)C2(C)C [US20250313563, Compound 918252]
< 0.1 µM | < 0.1 µM | CC1(C)CC(=O)C2=C(C1)NC1=C(CN=N1)C21CCCCC1 [US20250313563, Compound 826650]
< 0.1 µM | 1 to 5 µM | CCC1(c2cccc(-c3ccnc(C(C)(C)O)c3)c2)C2=CN=NC2NC2=C1C(=O)CC(C)(C)C2 (centres undefined) [US20250313563, Compound 943536]
< 0.1 µM | < 0.1 µM | CC(C)Oc1ccc(S(=O)(=O)N2CCC3(CC2)C2=C(N=NC2)NC2=C3C(=O)CC(C)(C)C2)cc1 [US20250313563, Compound 945673]

IC50 [1] | IC50 [2] | SMILES
0.1 to 1 µM | > 5 µM | CC[C@@]1(c2cccc(-c3cnn(C(C)C)c3F)c2)C2=CN=NC2NC2=C1C(=O)NC(C)(C)C2 (some centres undefined) [US20250313563, Compound 950061]
< 0.1 µM and 0.1 to 1 µM | 0.1 to 1 µM and > 5 µM | CC[C@@]1(c2cccc(-c3ccnc(C)c3)c2)C2=CN=NC2NC2=C1C(=O)[C@H](F)C(C)(C)C2 (some centres undefined) [US20250313563, Compound 945476]
0.1 to 1 µM | > 5 µM | CC[C@]1(c2cccc(-c3cnn(C)c3)c2)C2=C(CC(C)(C)NC2=O)NC2N=NC(C(F)F)=C21 (some centres undefined) [US20250313563, Compound 949911]
> 5 µM | > 5 µM | CC[C@@]1(c2cccc(C(F)(F)F)c2)C2=CN=NC2NC2=C1C(=O)N[C@@H](c1ccccc1)C2 (some centres undefined) [US20250313563, Compound 945364]
< 0.1 µM | 0.1 to 1 µM | CCC1(c2cccc(-c3ccnc(C)c3)c2)C2=C(CC(C)(C)CC2=O)NC2N=NC(C)=C21 (centres undefined) [US20250313563, Compound 883987]
0.1 to 1 µM | 0.1 to 1 µM | CC[C@@]1(c2cccc(S(=O)(=O)C3CC3)c2)C2=C(CC(C)(C)NC2=O)NC2N=NC(C(F)(F)F)=C21 (some centres undefined) [US20250313563, Compound 948776]
< 0.1 µM and 0.1 to 1 µM | < 0.1 µM and 1 to 5 µM | CC[C@]1(c2cccc(-c3cnc(C)n3C)c2)C2=CN=NC2NC2=C1C(=O)CC(C)(C)C2 (some centres undefined) [US20250313563, Compound 945613]
< 0.1 µM and 0.1 to 1 µM | < 0.1 µM and 0.1 to 1 µM | CC1(C)CC(=O)C2=C(C1)NC1N=NC=C1C21CC2(CCOCC2)C1 (centres undefined) [US20250313563, Compound 874534]
< 0.1 µM | 0.1 to 1 µM | Cn1ccc(S(=O)(=O)N2CCC3(CC2)C2=C(N=NC2)NC2=C3C(=O)CC(C)(C)[C@H]2F)n1 [US20250313563, Compound 951709]
0.1 to 1 µM | 0.1 to 1 µM | CC1(C)CC(=O)C2=C(C1)NC1=C(CN=N1)[C@]21CCOC2(CCC2)C1 [US20250313563, Compound 897756]
1 to 5 µM | > 5 µM | CC[C@@]1(c2cccc(Oc3ncccn3)c2)C2=C(CC(C)(C)NC2=O)NC2N=NC(Cl)=C21 (some centres undefined) [US20250313563, Compound 951605]
< 0.1 µM | 0.1 to 1 µM | CC1(C)CC(=O)C2=C(NC3=C(CN=N3)[C@]23CC[C@H](C(F)(F)F)CC3)C1F (some centres undefined) [US20250313563, Compound 917136]
0.1 to 1 µM | 1 to 5 µM | CCC1(c2cccc(N(C)c3ccncc3)c2)C2=CN=NC2NC2=C1C(=O)CC(C)(C)C2 (centres undefined) [US20250313563, Compound 853910]
< 0.1 µM | < 0.1 µM | CC1(C)CC(=O)C2=C(C1)NC1=C(CN=N1)[C@]21CCN(S(C)(=O)=O)C1 [US20250313563, Compound 942432]
< 0.1 µM | 0.1 to 1 µM | CCC1(c2cccc(-c3ncnc(C)c3C)c2)C2=CN=NC2NC2=C1C(=O)CC(C)(C)C2 (centres undefined) [US20250313563, Compound 948090]
< 0.1 µM | 0.1 to 1 µM | CC[C@@]1(c2cccc(-c3c(F)cncc3OC)c2)C2=CN=NC2NC2=C1C(=O)CC(C)(C)C2 (some centres undefined) [US20250313563, Compound 947512]
< 0.1 µM | 0.1 to 1 µM | CC(C)C(=O)N1CC2(C1)CC1(CO2)C2=C(N=NC2)NC2=C1C(=O)CC(C)(C)C2 (centres undefined) [US20250313563, Compound 947304]
< 0.1 µM | 0.1 to 1 µM | CC[C@@]1(c2cccc(C3=CN=NC3)c2)C2=C(CC(C)(C)NC2=O)NC2N=NC(C(F)(F)F)=C21 (some centres undefined) [US20250313563, Compound 948312]
0.1 to 1 µM | 0.1 to 1 µM | CC[C@@]1(c2cccc(Br)c2)C2=C(C[C@H](C)CC2=O)NC2N=NC(C(F)(F)F)=C21 (some centres undefined) [US20250313563, Compound 828850]
< 0.1 µM | < 0.1 µM | CCC1(c2cccc(-c3cncn3C(C)C)c2)C2=CN=NC2NC2=C1C(=O)CC(C)(C)C2F (centres undefined) [US20250313563, Compound 963155]
< 0.1 µM | < 0.1 µM | CCn1nccc1S(=O)(=O)N1CCC2(CC1)C1=C(N=NC1)NC1=C2C(=O)CC(C)(C)C1 [US20250313563, Compound 945664]
0.1 to 1 µM | < 0.1 µM | CC(C)(C)CC1=C2C(N=N1)NC1=C(C(=O)CC(C)(C)C1)[C@@]21CCc2ccc(F)cc21 (some centres undefined) [US20250313563, Compound 789505]
0.1 to 1 µM | 1 to 5 µM | CC1(C)CC(=O)C2=C(C1)NC1=C(CN=N1)C21CCC2(CCC(=O)N2)CC1 (centres undefined) [US20250313563, Compound 913056]
> 5 µM | > 5 µM | CC[C@@]1(c2cccc(C(F)(F)F)c2)C2=CN=NC2NC2=C1C(=O)N(C)C[C@@H]2C (some centres undefined) [US20250313563, Compound 883981]
1 to 5 µM | > 5 µM | CC[C@]1(c2cccc(-c3cc(C)ncc3F)c2)C2=C(CC(C)(C)NC2=O)NC2N=NC(C)=C21 (some centres undefined) [US20250313563, Compound 949327]
< 0.1 µM | 0.1 to 1 µM | Cc1cc(S(=O)(=O)N2CCC3(CC2)C2=C(N=NC2)NC2=C3C(=O)CC(C)(C)C2)c(C)s1 [US20250313563, Compound 945674]
